Laboratory results published in patent US7517874B2 (priority 2007, dated 2009).
Like-named read-outs stand apart in the source and are kept apart here.

Tests used:
[1] = molecular target: human CB1 receptor (hCB1) (Homo sapiens, UniProt P21554); assay: cell-based; assay type: cell-based
In short: (§1)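 First, cells in IBMX-containing HEPES-buffered HBSS are raised to elevated cAMP with 2-8 μM NKH-477 for 30 min. Data are normalised to the forskolin and forskolin + 1 μM CP55,940 controls.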

rat CB2 receptor (rCB2) = molecular target: T1, rat CB2 receptor (rCB2) (Rattus norvegicus, UniProt Q9QZN9); assay: cell-based; assay type: cell-based; conditions: for +/− RCB2: agonist or inverse agonist at rCB2
T1 sequence (Q9QZN9 1-360): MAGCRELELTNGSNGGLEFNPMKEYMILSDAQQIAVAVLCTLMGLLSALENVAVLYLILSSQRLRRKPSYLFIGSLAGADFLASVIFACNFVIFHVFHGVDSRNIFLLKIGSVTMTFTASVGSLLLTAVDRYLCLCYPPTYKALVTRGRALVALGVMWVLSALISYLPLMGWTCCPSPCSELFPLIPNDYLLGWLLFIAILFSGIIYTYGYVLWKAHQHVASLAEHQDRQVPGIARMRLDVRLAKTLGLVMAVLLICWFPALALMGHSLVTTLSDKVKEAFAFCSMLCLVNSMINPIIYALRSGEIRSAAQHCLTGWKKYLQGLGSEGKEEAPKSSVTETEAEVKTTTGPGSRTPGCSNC
In short: as §1

[2] = groups >100 nM-10 μM and >10 μM, cAMP, CHO-K1 hCB1, read-out: EC50 HCB1

Chain of human CB1 receptor (hCB1) (P21554 whole entry): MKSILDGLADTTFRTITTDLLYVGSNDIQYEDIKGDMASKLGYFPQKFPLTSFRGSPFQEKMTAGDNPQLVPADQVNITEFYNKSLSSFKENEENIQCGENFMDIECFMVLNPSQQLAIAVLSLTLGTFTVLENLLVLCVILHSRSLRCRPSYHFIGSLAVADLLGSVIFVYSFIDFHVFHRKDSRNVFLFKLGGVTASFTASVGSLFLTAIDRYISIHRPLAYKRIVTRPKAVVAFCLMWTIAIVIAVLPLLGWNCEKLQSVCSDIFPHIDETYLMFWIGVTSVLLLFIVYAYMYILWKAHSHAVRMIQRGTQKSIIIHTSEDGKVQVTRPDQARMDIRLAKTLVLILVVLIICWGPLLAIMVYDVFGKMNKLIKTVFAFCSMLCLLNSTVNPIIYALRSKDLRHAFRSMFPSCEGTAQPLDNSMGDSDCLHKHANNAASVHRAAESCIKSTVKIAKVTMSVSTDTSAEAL

SMILES | EC50 [1, 2] [nM] | EC50 (rat CB2 receptor (rCB2); groups >100 nM-10 μM and >10 μM, cAMP, CHO-K1 rCB2, read-out: EC50 RCB2) [nM] | +/− RCB2 (rat CB2 receptor (rCB2)) | EC50 [1] [nM]
O=C(NCC1CCOCC1)c1nc(-c2ccccc2)n2c1CN(C(=O)C1CCOC1)CC2 (stereo not drawn) [Compound 135, 3-phenl-N-((tetrahydro-2H-pyran-4-yl)methyl)-7-(tetrahydrofuran-3-carbonyl)-5,6,7,8-tetrahydroimidazo[1,5-a]pyrazine-1-carboxamide] | > 10000 | > 10000 |  | 
O=C(NC1CCCCC1)c1nc(-c2ccccc2)n2c1CN(C(=O)C1CC1)CC2 [Compound 136, N-cyclohexyl-7-(cyclopropanecarbonyl)-3-phenyl-5,6,7,8-tetrahydroimidazo[1,5-a]pyrazine-1-carboxamide] | > 10000 |  | − | 
CC(C)(C)C(=O)N1CCn2c(-c3ccccc3)nc(C(=O)NC3CCCCC3)c2C1 [Compound 137, N-cyclohexyl-3-phenyl-7-pivaloyl-5,6,7,8-tetrahydroimidazo[1,5-a]pyrazine-1-carboxamide] | > 10000 |  | − | 
O=C(NC1CCCCC1)c1nc(-c2ccccc2)n2c1CN(C(=O)c1ccoc1)CC2 [Compound 138, N-cyclohexyl-7-(furan-3-carbonyl)-3-phenyl-5,6,7,8-tetrahydroimidazo[1,5-a]pyrazine-1-carboxamide] | > 10000 |  | − | 
C[C@@H](NC(=O)c1nc(-c2ccccc2)n2c1CN(C(=O)C1CCOC1)CC2)C1CCCCC1 (stereo partly drawn) [Compound 139, N-((R)-1-cyclohexylethyl)-3-phenyl-7-(tetrahydrofuran-3-carbonyl)-5,6,7,8-tetrahydroimidazo[1,5-a]pyrazine-1-carboxamide] |  |  | − | > 10000
C[C@@H](NC(=O)c1nc(-c2ccccc2)n2c1CN(CCO)CC2)C1CCCCC1 [Compound 140, (R)-N-(1-cyclohexylethyl)-7-(2-hydroxyethyl)-3-phenyl-5,6,7,8-tetrahydroimidazo[1,5-a]pyrazine-1-carboxamide] |  |  | − | > 10000
O=C(NC1CCCCC1)c1nc(-c2ccccc2)n2c1CN(CC1CCOC1)CC2 (stereo not drawn) [Compound 141, N-cyclohexyl-3-phenyl-7-((tetrahydrofuran-3-yl)methyl)-5,6,7,8-tetrahydroimidazo[1,5-a]pyrazine-1-carboxamide] |  |  | − | > 10000
CC(C)CN1CCn2c(-c3ccccc3)nc(C(=O)NC3C4(C)CCC(C4)C3(C)C)c2C1 (stereo not drawn) [Compound 142, 7-isobutyl-3-phenyl-N-(1,3,3-trimethylbicyclo[2.2.1]heptan-2-yl)-5,6,7,8-tetrahydroimidazo[1,5-a]pyrazine-1-carboxamide] |  |  | − | > 10000
CC12CCC(C1)C(C)(C)C2NC(=O)c1nc(-c2ccccc2)n2c1CN(CCO)CC2 (stereo not drawn) [Compound 143, 7-(2-hydroxyethyl)-3-phenyl-N-(1,3,3-trimethylbicyclo[2.2.1]heptan-2-yl)-5,6,7,8-tetrahydroimidazo[1,5-a]pyrazine-1-carboxamide] |  |  | − | > 10000
CCN1CCn2c(-c3ccccc3)nc(C(=O)NC3C4(C)CCC(C4)C3(C)C)c2C1 (stereo not drawn) [Compound 144, 7-ethyl-3-phenyl-N-(1,3,3-trimethylbicyclo[2.2.1]heptan-2-yl)-5,6,7,8-tetrahydroimidazo[1,5-a]pyrazine-1-carboxamide] |  |  | − | > 10000
CC(C)CN1CCn2c(-c3ccccc3)nc(C(=O)N[C@@H](C)c3ccccc3)c2C1 [Compound 145, (S)-7-isobutyl-3-phenyl-N-(1-phenylethyl)-5,6,7,8-tetrahydroimidazo[1,5-a]pyrazine-1-carboxamide] |  |  | − | > 10000
C[C@H](NC(=O)c1nc(-c2ccccc2)n2c1CN(CCO)CC2)c1ccccc1 [Compound 146, (S)-7-(2-hydroxyethyl)-3-phenyl-N-(1-phenylethyl)-5,6,7,8-tetrahydroimidazo[1,5-a]pyrazine-1-carboxamide] |  |  | − | > 10000
